Results on one compound are retold here after patent US20130030025A1, “USE OF POTASSIUM CHANNEL BLOCKERS TO TREAT CEREBRAL PALSY” (priority 2011, published 2013).

Values joined by “and” are separate entries in the source; they are usually repeats but may differ in a detail not shown here. Equal entries are not always repeated. “Also recorded” adds a separate entry of the source.

The subject of this test is middle cerebral artery occlusion (MCAO) in rats. Nature of the test: Forelimb placing test after MCAO. Type of test: in vivo, Sprague Dawley rats. Further details: Forelimb Placing Total Score, Mean: scale not given here. The note with it: for Forelimb Placing Total Score, Mean: group mean N=15; for Forelimb Placing Total Score: individual animals, 0=normal, 12=maximally impaired. As to the method:
4-AP was evaluated for its ability to promote functional sensorimotor improvement following ischemic stroke in rats with stable motor deficits at times remote from their ischemic events. The animal model mimics the conditions in human ischemic stroke and is produced by middle cerebral artery occlusion (MCAO), which results in extensive infarction in cerebral cortex and striatum, including the cortical spinal tract (white matter). In particular, the MCAO model in Sprague Dawley rats that was utilized in the experiments presented below mimics the conditions in human ischemic stroke. In this experiment, Sprague Dawley rats were anesthetized, subjected to a surgery resulting in middle cerebral artery occlusion (MCAO), treated with and without 4-aminopyridine and behavioral assessments were performed as described below. Surgical Procedure: A small focal stroke (infarct) was made on the right side of the surface of the brain (cerebral cortex) by middle cerebral artery occlusion (MCAO). The right side of the head was shaved with electric clippers (patch of approx 3×5 cm between eye and ear). The region was carefully cleaned with septisol. Using aseptic technique, an incision was made midway between the eye and eardrum canal. The temporalis muscle was isolated, bisected, and reflected. A small window of bone was removed via drill and rongeurs (subtemporal craniectomy) to expose the middle cerebral artery (MCA). Care was taken not to remove the zygomatic arch or to transect the facial nerve that would impair the ability of the animal to chew after surgery. […] The MCA was then transected. The temporalis muscle was then repositioned, and the incision was closed subcutaneously with sutures. The skin incision was closed with surgical staples (2-3 required). Throughout the procedure, body temperature was maintained at 37.0°±1° C., using a self-regulating heating pad connected to a rectal thermometer. Dosing: Rats were treated in accordance with the dosing schedule shown in Tables 1A, 1B, and FIG. 2, with each Phase being a two week period of time. A solution of 4-AP was used in this experiment. Dosing was started at 4 weeks after ischemic event. Treatment groups: Dosing was started 4 weeks after pMCAO surgery. During these 4 weeks, weekly behavioral assessments, as defined below, were performed. Two dose levels of 4-AP plus vehicle control were assessed, with treatment starting at 4 weeks after ischemic event. All dosing was via gastric gavage, volume not to exceed 2 mL/kg. Animals were given the first dose and behavioral assessments were performed starting 60 minutes after dosing. Animals then received the second dose that day at the appropriate time and b.i.d (preferably every 12 hours) thereafter for 2 more days (3 total days of dosing, 5 total doses). One hour after the 5th dose, animals were subjected to behavioral assessments as defined below. Following the final behavioral assessment, drug was withdrawn for 10 or 11 days, behavior was re-assessed, and then animals were re-challenged with a cross-over treatment (Phase II of Table 1B) as described in Tables 1A, 1B, followed by the same behavioral testing and dosing regimen. This cross-over was repeated one more time as well (Phase III of Table 1B) (see FIG. 2). Behavioral test details: Behavioral evaluations were done by investigators blinded to treatment assignment. As described above, behavioral assessments were timed exactly with dosing times. Animals were given the first dose, behavioral assessments were performed starting 60 minutes later, and blood was collected 90 minutes after dosing. Animals then received the second dose that day at the appropriate time and b.i.d (preferably every 12 hours) thereafter for 2 more days (3 total days of dosing, 5 total doses). One hour after the 5th dose, animals were subjected to behavioral testing. […]

As for `Nc1ccncc1` [4-AP, 4-aminopyridine], the “Forelimb Placing Total Score, Mean” value (Group I, Phase 1, D30, High 4-AP 2.0 mg/kg b.i.d. p.o., after first dose) was 3.37; the “Forelimb Placing Total Score, Mean” value (Group I, Phase 1, D32, High 4-AP 2.0 mg/kg b.i.d. p.o., after 5th dose) is 2.43; the “Forelimb Placing Total Score, Mean” value (Group I, Phase 2, D44, Low 4-AP 0.63 mg/kg b.i.d. p.o., after first dose) was 2.37; the “Forelimb Placing Total Score, Mean” value (Group I, Phase 2, D46, Low 4-AP 0.63 mg/kg b.i.d. p.o., after 5th dose) is recorded as 2.03; the “Forelimb Placing Total Score, Mean” value (Group II, Phase 1, D30, Low 4-AP 0.63 mg/kg b.i.d. p.o., after first dose) is on record as 4.20; the “Forelimb Placing Total Score, Mean” value (Group II, Phase 1, D32, Low 4-AP 0.63 mg/kg b.i.d. p.o., after 5th dose) is 3.43. Besides, the “Forelimb Placing Total Score, Mean” value is reported as 1.90 (Group II, Phase 3, D58, High 4-AP 2.0 mg/kg b.i.d. p.o., after first dose); 1.17 (Group II, Phase 3, D60, High 4-AP 2.0 mg/kg b.i.d. p.o., after 5th dose); 2.67 (Group III, Phase 2, D44, High 4-AP 2.0 mg/kg b.i.d. p.o., after first dose); 1.33 (Group III, Phase 2, D46, High 4-AP 2.0 mg/kg b.i.d. p.o., after 5th dose); 2.00 (Group III, Phase 3, D58, Low 4-AP 0.63 mg/kg b.i.d. p.o., after first dose); 1.80 (Group III, Phase 3, D60, Low 4-AP 0.63 mg/kg b.i.d. p.o., after 5th dose). The “Forelimb Placing Total Score” value (Group I, Phase 1, D30 post-MCAO, High 4-AP 2.0 mg/kg b.i.d. p.o., 60 min after first dose) is 4.50 (4×) and 3.50 (4×) and 4.00 and 5.50 and 3.00 (2×) and 0.50 and 1.00 and 1.50; the “Forelimb Placing Total Score” value (Group I, Phase 1, D32, High 4-AP 2.0 mg/kg b.i.d. p.o., 1 h after 5th dose) was 3.00 (4×) and 2.00 (3×) and 3.50 (3×) and 2.50 and 0.50 (3×) and 4.00; the “Forelimb Placing Total Score” value (Group I, Phase 2, D44, Low 4-AP 0.63 mg/kg b.i.d. p.o., 60 min after first dose) was 3.50 (2×) and 1.50 (2×) and 4.00 (4×) and 3.00 (2×) and 2.00 and 0.00 (2×) and 0.50 and 1.00; the “Forelimb Placing Total Score” value (Group I, Phase 2, D46, Low 4-AP 0.63 mg/kg b.i.d. p.o., 1 h after 5th dose) is 3.50 (2×) and 1.50 (3×) and 3.00 (3×) and 4.00 and 2.50 (2×) and 0.00 (3×) and 1.00; the “Forelimb Placing Total Score” value (Group II, Phase 1, D30, Low 4-AP 0.63 mg/kg b.i.d. p.o., 60 min after first dose) is 5.50 (3×) and 4.00 (2×) and 3.50 and 5.00 and 4.50 and 1.50 (2×); the “Forelimb Placing Total Score” value (Group II, Phase 1, D32, Low 4-AP 0.63 mg/kg b.i.d. p.o., 1 h after 5th dose) was 5.50 and 2.00 (2×) and 4.00 and 5.00 and 3.50 and 4.50 and 1.00 (2×) and 3.00. For the same compound, the “Forelimb Placing Total Score” value was 2.50 (2×) and 0.00 (3×) and 1.50 (2×) and 3.00 and 5.00 and 2.00 (Group II, Phase 3, D58, High 4-AP 2.0 mg/kg b.i.d. p.o., 60 min after first dose); 1.00 (4×) and 0.00 (4×) and 1.50 and 3.50 (Group II, Phase 3, D60, High 4-AP 2.0 mg/kg b.i.d. p.o., 1 h after 5th dose). Also, the “effect on forelimb function (forelimb placing test)” value (low or high dose, 4 weeks post ischemic brain injury, rats, dose-responsive, reversible) is listed as “effective to improve forelimb function; also recorded: significant improvement”.
